Article PMC6881072, “The repositioning of epigenetic probes/inhibitors identifies new anti-schistosomal lead compounds and chemotherapeutic targets” (PLoS Neglected Tropical Diseases, 2019)

How the values were obtained:
Format in all cases: cell-based, Schistosoma mansoni
[1] = tested on: adult schistosome pairs; test: RNAi of adult schistosome pairs: motility and egg counts; settings: 168 h (7 days post-treatment), vs siLuc
Protocol: (§1) Following the perfusion of 7 wks infected mice, adult worms were recovered and RNAi performed as previously described. Briefly, smp_000700 and non-specific luciferase siRNA duplexes were purchased from Sigma (siSmp_000700 = sense: GGUAAUCGGUCAUGUGUAU[dT][dT] and anti-sense: AUACACAUGACCGAUUACC[dT][dT]; siLuc = sense CUUACGCUGAGUACUUCGA[dT][dT] and anti-sense UCGAAGUACUCAGCGUAAG[dT][dT]) and used at a final concentration of 50 ng/μl. Mixed sex adult worm pairs (for knockdown assessment by quantitative reverse transcription PCR, qRT-PCR) were cultured at 37°C in DMEM supplemented with 10% FCS, 2 mM L-glutamine, […] HEPES (Sigma-Aldrich, UK), 100 Units/ml penicillin and 100 μg/ml streptomycin in an atmosphere of 5% CO2 with a 70% media exchange performed every 48 h. The experiment was replicated three times (21 worm pairs/replicate). Quantitative reverse transcription PCR (qRT-PCR) of smp_000700 abundance was performed at 48 h and adult worm motility as well as egg counts were quantified at 168 h. Levels of H3K36me2 detected in schistosome histone extracts were assessed at 72 h.

[2] = tested on: smp_000700; test: RNAi knockdown assessment by qRT-PCR; settings: 48 h, vs siLuc
Protocol: as §1
Following RNAi with siSmp_000700 and siLuc, mixed-sex adult worms were incubated for a total of 48 h before processing them for RNA isolation. […]

[3] = tested on: H3K36me2; test: H3K36me2 detection in adult worm histone extracts; settings: siRNA 50 ng/μl, adult worms, vs siLuc
Protocol: LLY-507 (6.25 μM), BAY-598 (25 μM) or siSmp_000700 treated male and female worms (alongside DMSO or siLuc controls; 21 individuals per condition) were homogenized with a TissueLyser (Qiagen) and total histones extracted using the EpiQuik^TM Total Histone Extraction Kit (Epigentek). Levels of H3K36me2 in adult histone extracts were measured using the EpiQuik^TM Global Di-Methyl Histone H3-K36 Quantification Kit (Fluorimetric, Epigentek). Technical duplicates of three biological replicates of each treatment were analysed according to the manufacturer’s instructions. Fluorescent readings (530EX/590EM nm) were obtained using a POLARstar Omega (BMG Labtech, UK) microtiter plate reader. Fluorescent values of the samples were corrected by subtracting the fluorescent readings of the blank (buffer only, provided in the kit). The mean of the adjusted control values (DMSO for LLY-507/BAY-598 treated worms and siLuc for siSmp_000700 treated worms) was set at 100% H3K36me2 and the standard deviation (SD) was calculated from the normalised values.

**Q.** How did the “adult worm motility after RNAi” value [1] turn out when “siSmp_000700: siRNA duplex directed against smp_000700; sense GGUAAUCGGUCAUGUGUAU[dT][dT] (antisense AUACACAUGACCGAUUACC; 3' dTdT overhangs, further chemistry not given here)” was run?
**A.** Its value is “significant reduction in adult worm motility”.

**Q.** What about the “egg production after RNAi” value [1] of the same substance?
**A.** Its value is “egg production defects”.

**Q.** And the “reduction of smp_000700 mRNA abundance (KD)” value [2]?
**A.** Its value is 66%.

**Q.** What about the “reduction in H3K36me2” value [3] of the same substance?
**A.** The value was 15%.
